In paper doi:10.1101/2025.11.04.686469, “Discovery of Host-Directed Small Molecules with Broad Anti-Leishmanial Efficacy” (bioRxiv, 2025):

Columns and labels:
THP-1 macrophages = experiment: Effect of compounds on host cell viability (MTT); assay type: cell-based; details: read-out: 24h LC50; THP1 macrophages, 24-hour incubation, MTT assay (Supplemental Table 2)
Outline: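 Viability was read as MTT reduction: 2 h with 0.5 mg/mL, formazan dissolved in isopropanol, A560 with 670 nm background subtracted. The macrophages were PMA-differentiated THP-1 cells (150 nM, 72 h), treated 24 h at 1–50 μM or, for some compounds, 72 h at 1–300 μM.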

[1] = test system: intracellular L. donovani amastigotes; experiment: Luminescent-based evaluation of intracellular anti-leishmanial activity in THP-1 macrophages; assay type: cell-based, Leishmania donovani; details: intracellular Leishmania donovani in THP1 macrophages, luminescence assay (Supplemental Table 2); read-out: Lum IC50
Method: Luminescent strains, L. donovani LV82 expressing firefly luciferase (a kind gift from Dr. Abhay Satoskar, Ohio State University) and L. mexicana (NR-51210, ATCC) expressing renilla luciferase were used to evaluate the effect of the compounds in intracellular and extracellular conditions. Wild-type L. donovani LV82 (ATCC) were used for Giemsa staining based experiments. All parasites were cultured at 25°C and 5% CO2 in M199 media (Corning) supplemented with 10% FBS, 1% penicillin/streptomycin, and hemin (0.01 mg/mL), and used in experiments up to passage 15.
THP-1 cells were seeded in a 96 well plate (25,000 cells/well) overnight then differentiated with 150 nM phorbol 12-myristate 13-acetate (PMA) over 72 hours (Supplemental Figure 1). […] Briefly, promastigotes of a known cell density were resuspended in RPMI media (with 10% FBS, 1% P/S and 0.05 mM β-mercaptoethanol) and incubated with adhered THP-1 cells over 18 hours. After infection, cells were washed three times with fresh media to remove extracellular promastigotes.
Infected macrophages were then treated with compounds solubilized in DMSO ranging from 0.1-10 μM in concentrations. After 72 hours of treatment, the viability of the amastigotes within macrophages was determined using Promega firefly luminescence assay (Cat E1500) or Pierce Renilla luciferase assay (Cat 16166) for L. donovani and L. mexicana strains, respectively. Briefly, media was removed, and cells were lysed with the assay lysis buffer. The luciferase substrate was then incubated with the lysed cells for 10 min at room temperature and luminescence of live Leishmania was measured in a white opaque 96 well plate using a Biotek plate reader.

Compound	CC50 (THP-1 macrophages)	IC50 [1]
Oc1ccc(CN2CCC(Nc3ccc(-n4nc(C(F)(F)F)cc4C4CCCCC4)cc3)C2)cc1 (centres unmarked) [Compound 368]	12.1 µM	1.6 µM
NC1CCN(c2ccc(-n3nc(C(F)(F)F)cc3-c3ccc(-c4ccc(S(F)(F)(F)(F)F)cc4)cc3)cc2)C1 (centres unmarked) [Compound 106]	6 µM	8.1 µM
CC(C)(C)OC(=O)NCC(=O)Nc1ccc(-n2cnc3ccccc32)cc1 [Compound 148]	> 50 µM	> 10 µM
FC(F)(F)c1cc(C2CCCCC2)nn1-c1ccc(Br)cc1 [Compound 216]	> 50 µM	> 10 µM
NCCCCCN1CCC(Oc2ccc(-n3nc(C(F)(F)F)cc3C3CCCCC3)cc2)CC1 [Compound 422]	6.1 µM	2.5 µM
FC(F)(F)c1cc(C2CCCCC2)n(-c2ccc(N3CCC(NCc4ccccc4)C3)cc2)n1 (centres unmarked) [Compound 364]	31.1 µM	6.8 µM
CC(C)C#Cc1ccc(-c2cc(C(F)(F)F)nn2-c2ccc(N3CCC(NC(=O)OC(C)(C)C)C3)cc2)cc1 (centres unmarked) [Compound 97]	> 50 µM	> 10 µM
Cc1nn(-c2ccc(Br)cc2)c2ccccc12 [Compound 132]	> 50 µM	> 10 µM
FC(F)(F)c1ccc(-c2ccc3nc[nH]c3c2)cc1 [Compound 135]	> 50 µM	> 10 µM
O=[N+]([O-])c1ccc(-n2cnc3cc(Br)ccc32)cc1 [Compound 139]	> 50 µM	> 10 µM
Fc1cccc(CN2CC(Nc3ccc(-n4nc(C(F)(F)F)cc4C4CCCCC4)cc3)C2)c1 [Compound 396]	23.3 µM	6.1 µM
FC(F)(F)c1ccc(-c2ccc(-c3cc(C(F)(F)F)nn3-c3ccc(NC4CCN(C5CCCCC5)C4)cc3)cc2)cc1 (centres unmarked) [Compound 58]	2.6 µM	2.2 µM
CC(C)C#Cc1ccc(-c2cc(C(F)(F)F)nn2-c2ccc(Br)cc2)cc1 [Compound 96]	37.5 µM	> 10 µM
NCCCCCOc1ccc(CN2CCC(Oc3ccc(-n4nc(C(F)(F)F)cc4C4CCCCC4)cc3)CC2)cc1 [Compound 432]	5.6 µM	2.9 µM
N#Cc1ccc(-n2cc(C(F)(F)F)nc2-c2ccc(-c3ccc(C(F)(F)F)cc3)cc2)cc1 [Compound 177]	> 50 µM	> 10 µM
CC(C)C#Cc1ccc(-c2cc(C(F)(F)F)nn2-c2ccc(N3CCC(NCc4ccccc4)C3)cc2)cc1 (centres unmarked) [Compound 99]	29.2 µM	> 10 µM
FC(F)(F)c1ccc(-c2ccc(-c3cc(C(F)(F)F)nn3-c3ccc(OC4CCN(Cc5ccccc5)C4)cc3)cc2)cc1 (centres unmarked) [Compound 145]	> 50 µM	> 10 µM
NCC(=O)NC1CCN(c2ccc(-n3nc(C(F)(F)F)cc3-c3ccc(-c4ccc(C(F)(F)F)cc4)cc3)cc2)C1 (centres unmarked) [Compound 119]	37.2 µM	> 10 µM
FC(F)(F)c1cc(-c2ccco2)n(-c2ccc(NC3CCNC3)cc2)n1 (centres unmarked) [Compound 273]	15.6 µM	4.9 µM
FC(F)(F)c1ccc(-c2ccc(-c3nc(C(F)(F)F)cn3-c3ccc(N4CCNCC4)cc3)cc2)cc1 [Compound 74]	6.5 µM	2.8 µM
FC(F)(F)c1cc(C(F)(F)F)n(-c2ccc(NC3CCNC3)cc2)n1 (centres unmarked) [Compound 314]	21.9 µM	2.7 µM
CC(C)(C)OC(=O)NC(Cc1ccccc1)C(=O)Nc1ccc(-n2cc(C(F)(F)F)nc2-c2ccc(-c3ccc(C(F)(F)F)cc3)cc2)cc1 (centres unmarked) [Compound 78]	> 50 µM	> 10 µM
FC(F)(F)c1cc(-c2cccnc2)n(-c2ccc(Br)cc2)n1 [Compound 249]	50 µM	> 10 µM
FC(F)(F)C#Cc1ccc(-c2cc(C(F)(F)F)nn2-c2ccc(N3CCNCC3)cc2)cc1 [Compound 93]	40 µM	> 10 µM
NCCCCN1CCC(Oc2ccc(-n3nc(C(F)(F)F)cc3C3CCCCC3)cc2)CC1 [Compound 424]	6.5 µM	2.4 µM
O=C(CNCc1ccccc1)Nc1ccc(-n2nc(C(F)(F)F)cc2C2CCCCC2)cc1 [Compound 353]	17.5 µM	4.2 µM
N#Cc1ccc(-n2cc(C(F)(F)F)cc2-c2ccc(-c3ccc(C(F)(F)F)cc3)cc2)cc1 [Compound 205]	> 50 µM	> 10 µM
CS(=O)(=O)c1ccc(-n2nc(C(F)(F)F)cc2-c2ccc(-c3ccccc3)cc2)cc1 [Compound 174]	> 50 µM	> 10 µM

Compound	CC50 (THP-1 macrophages)	IC50 [1]
Fc1cccc(CN2CCC(Nc3ccc(-n4nc(C(F)(F)F)cc4C4CCCCC4)cc3)C2)c1 (centres unmarked) [Compound 357]	13.1 µM	1.2 µM
FC(F)(F)c1cc(-c2ccc(-c3cccs3)cc2)n(-c2ccc(N3CCNCC3)cc2)n1 [Compound 209]	10.2 µM	3 µM
FC(F)(F)c1cn(-c2ccc(OC3CCNC3)cc2)c(-c2ccc(-c3ccccc3)cc2)n1 (centres unmarked) [Compound 328]	11.1 µM	2.6 µM
NC1CCN(c2ccc(-n3nc(C(F)(F)F)cc3C3CCCCC3)cc2)CC1 [Compound 324]	27.5 µM	1.9 µM
FC(F)(F)c1ccc(-c2ccc(-c3nc(C(F)(F)F)cn3-c3ccc(NC4CCNC4)cc3)cc2)cc1 (centres unmarked) [Compound 246]	5.5 µM	3.8 µM
NCCCOc1ccc(CN2CCC(Oc3ccc(-n4nc(C(F)(F)F)cc4C4CCCCC4)cc3)CC2)cc1 [Compound 429]	12.1 µM	2.4 µM
O=C(CNCc1ccc(O)cc1)Nc1ccc(-n2nc(C(F)(F)F)cc2C2CCCCC2)cc1 [Compound 355]	21.2 µM	2 µM
CC(=O)NCCCN1CCC(Oc2ccc(-n3nc(C(F)(F)F)cc3C3CCCCC3)cc2)CC1 [Compound 428]	11.4 µM	8.9 µM
CC(C)(C)OC(=O)NC1CCN(c2ccc(-n3nc(C4CCCCC4)cc3C(F)(F)F)cc2)C1 (centres unmarked) [Compound 229]	5 µM	3.4 µM
CC(C)(C)c1cc(C(F)(F)F)nn1-c1ccc(N2CCC(N)C2)cc1 (centres unmarked) [Compound 203]	11.8 µM	2.9 µM
NC1CCN(c2ccc(-n3nc(C4CCCCC4)cc3C(F)(F)F)cc2)C1 (centres unmarked) [Compound 232]	14.4 µM	2.6 µM
FC(F)(F)c1cn(-c2ccc(N3CCC(NCc4ccccc4)C3)cc2)c(-c2ccc(-c3ccccc3)cc2)n1 (centres unmarked) [Compound 84]	> 50 µM	6.5 µM
CCCNC1CN(c2ccc(-n3nc(C(F)(F)F)cc3-c3ccc(-c4ccc(C(F)(F)F)cc4)cc3)cc2)C1 [Compound 54]	9.9 µM	2.4 µM
FC(F)(F)c1cc(-c2ccc(-c3ccccc3)cc2)n(-c2ccc(NCCc3ccccc3)cc2)n1 [Compound 62]	> 50 µM	> 10 µM
FC(F)(F)c1cn(-c2ccc(NCC3CC3)cc2)c(-c2ccc(-c3ccccc3)cc2)n1 [Compound 116]	> 50 µM	9.9 µM
CC(C)(C)OC(=O)NC1CCN(c2ccc(-n3nc(C(F)(F)F)cc3-c3ccc(-c4ccc(C(F)(F)F)cc4)cc3)cc2)C1 (centres unmarked) [Compound 128]	> 50 µM	> 10 µM
CC(C)(C)OC(=O)N1CCC(Oc2ccc(-n3nc(C(F)(F)F)cc3-c3ccc(-c4ccc(C(F)(F)F)cc4)cc3)cc2)C1 (centres unmarked) [Compound 142]	> 50 µM	> 10 µM
CC(=O)NCCNC1CCN(c2ccc(-n3nc(C(F)(F)F)cc3C3CCCCC3)cc2)CC1 [Compound 419]	21.6 µM	2.7 µM
CC(C)(C)OC(=O)NCC(=O)Nc1ccc(-n2cc(C(F)(F)F)nc2-c2ccc(C(C)(C)C)cc2)cc1 [Compound 151]	31.8 µM	> 10 µM
FC(F)(F)c1cc(C2CCCCC2)n(-c2ccc(OC3CCN(Cc4ccccc4)CC3)cc2)n1 [Compound 371]	> 50 µM	8.9 µM
FC(F)(F)c1ccc(-c2ccc(-c3cc(C(F)(F)F)nn3-c3ccc(NC4CCNCC4)cc3)cc2)cc1 [Compound 65]	4 µM	2.3 µM
CC(=O)NCCCNC1CCN(c2ccc(-n3nc(C(F)(F)F)cc3C3CCCCC3)cc2)CC1 [Compound 421]	19 µM	1.5 µM
NC(Cc1ccccc1)C(=O)N1CCC(Nc2ccc(-n3nc(C(F)(F)F)cc3-c3ccc(-c4ccc(C(F)(F)F)cc4)cc3)cc2)C1 (centres unmarked) [Compound 61]	6.1 µM	2.3 µM
FC(F)(F)c1cc(C2CCCCC2)n(-c2ccc(NC3CCN(Cc4ccccc4)CC3)cc2)n1 [Compound 381]	12.4 µM	6.2 µM
Fc1cccc(CNC2CCN(c3ccc(-n4nc(C(F)(F)F)cc4C4CCCCC4)cc3)CC2)c1 [Compound 337]	32.1 µM	3.5 µM
O=[N+]([O-])c1ccc(-n2cc(C(F)(F)F)nc2-c2ccc(-c3ccc(C(F)(F)F)cc3)cc2)cc1 [Compound 154]	25.5 µM	2.9 µM
FC(F)(F)c1cc(C2CCCCC2)n(-c2ccc(NC3CN(Cc4ccccc4)C3)cc2)n1 [Compound 395]	37.4 µM	7.6 µM
